Test results: US20140107100A1, “Benzoxazepines as Inhibitors of PI3K/mTOR and Methods of Their Use and Manufacture” (EXELIXIS, INC., priority 2010, published 2014)

Legend:
mTOR/GbL/Raptor (mTORC1) = mTOR/GbL/Raptor (mTORC1) (Homo sapiens, UniProt P42345); assay: mTOR/GbL/Raptor (mTORC1) ELISA assay, phosphorylation of 4E-BP1; assay type: biochemical; details: 0.2 nM mTORC1, 40 uM ATP, 50 nM NHis-tagged 4E-BP1, 120 minutes; read-out: IC50 in this assay (mTORC1 ELISA)
In short: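 Phospho-4E-BP1 was quantified by luminescent ELISA (anti-phospho-4E-BP1 IgG, HRP-tagged secondary) after capture of the His-tagged substrate on Ni-chelate plates.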

PI3Kα = PI3Kα (Homo sapiens, UniProt P42336); assay: PI3K biochemical assay, ATP consumption by luciferase-luciferin chemiluminescence; details: 3 nM enzyme, 10 μM PIP2, approximately 2 h; read-out: IC50 in the PI3K-alpha assay
Chain of PI3Kα (P42336 whole entry): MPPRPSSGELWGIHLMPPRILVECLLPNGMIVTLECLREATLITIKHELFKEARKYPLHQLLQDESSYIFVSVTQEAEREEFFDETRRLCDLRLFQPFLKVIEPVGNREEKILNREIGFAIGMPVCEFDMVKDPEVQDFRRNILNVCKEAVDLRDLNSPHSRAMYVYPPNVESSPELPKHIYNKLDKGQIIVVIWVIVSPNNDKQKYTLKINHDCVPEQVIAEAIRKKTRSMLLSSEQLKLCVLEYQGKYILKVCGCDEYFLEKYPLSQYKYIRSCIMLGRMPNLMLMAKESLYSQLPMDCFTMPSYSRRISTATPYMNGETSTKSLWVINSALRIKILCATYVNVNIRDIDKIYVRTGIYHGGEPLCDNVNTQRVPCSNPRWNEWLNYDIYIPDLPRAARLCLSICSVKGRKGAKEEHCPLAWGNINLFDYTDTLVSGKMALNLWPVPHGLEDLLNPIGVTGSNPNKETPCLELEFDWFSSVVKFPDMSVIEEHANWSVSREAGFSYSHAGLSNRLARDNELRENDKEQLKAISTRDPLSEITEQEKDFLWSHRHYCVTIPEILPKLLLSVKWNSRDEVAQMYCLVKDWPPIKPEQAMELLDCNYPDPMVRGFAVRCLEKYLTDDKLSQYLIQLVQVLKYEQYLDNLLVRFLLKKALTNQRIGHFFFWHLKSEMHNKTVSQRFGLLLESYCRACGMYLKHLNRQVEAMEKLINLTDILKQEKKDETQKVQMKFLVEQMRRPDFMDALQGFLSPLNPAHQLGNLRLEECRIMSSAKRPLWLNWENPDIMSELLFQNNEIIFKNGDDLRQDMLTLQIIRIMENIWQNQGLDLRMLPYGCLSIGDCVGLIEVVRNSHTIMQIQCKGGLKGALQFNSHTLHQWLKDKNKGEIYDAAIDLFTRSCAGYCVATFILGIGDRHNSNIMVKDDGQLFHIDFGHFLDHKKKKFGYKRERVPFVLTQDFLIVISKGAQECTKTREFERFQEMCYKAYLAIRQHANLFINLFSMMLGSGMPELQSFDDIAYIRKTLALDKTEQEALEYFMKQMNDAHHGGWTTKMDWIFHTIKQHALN
Chain of PI3Kα (P27986 whole entry partner): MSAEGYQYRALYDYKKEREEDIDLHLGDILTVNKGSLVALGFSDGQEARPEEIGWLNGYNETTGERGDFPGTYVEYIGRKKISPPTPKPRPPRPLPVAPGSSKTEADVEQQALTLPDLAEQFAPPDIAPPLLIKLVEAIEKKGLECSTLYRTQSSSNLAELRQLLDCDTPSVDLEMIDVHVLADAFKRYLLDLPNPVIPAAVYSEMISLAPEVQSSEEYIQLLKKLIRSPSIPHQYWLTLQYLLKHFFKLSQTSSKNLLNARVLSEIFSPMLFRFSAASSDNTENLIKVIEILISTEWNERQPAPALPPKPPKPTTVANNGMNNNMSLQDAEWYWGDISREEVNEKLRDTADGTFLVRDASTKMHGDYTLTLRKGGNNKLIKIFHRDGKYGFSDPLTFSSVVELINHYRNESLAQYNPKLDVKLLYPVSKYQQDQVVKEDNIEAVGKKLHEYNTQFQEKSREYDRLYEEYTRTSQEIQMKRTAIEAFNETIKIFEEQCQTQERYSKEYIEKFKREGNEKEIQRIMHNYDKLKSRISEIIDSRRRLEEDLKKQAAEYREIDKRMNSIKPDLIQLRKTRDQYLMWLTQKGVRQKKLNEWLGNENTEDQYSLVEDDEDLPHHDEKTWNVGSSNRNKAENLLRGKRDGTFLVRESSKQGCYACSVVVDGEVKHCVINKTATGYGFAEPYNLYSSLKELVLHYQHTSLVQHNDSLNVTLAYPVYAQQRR
Description: P13Kα activity was measured as the percent of ATP consumed following the kinase reaction using luciferase-luciferin-coupled chemiluminescence. Reactions were conducted in 384-well white, medium binding microliter plates (Greiner). Kinase reactions were initiated by combining test compounds. ATP, substrate (PIP2), and kinase in a 20 μL volume in a buffer solution. The standard P13Kalpha assay buffer was composed 50 mM Tris, pH 7.5, 1 mM EGTA, 10 mM MgCl2, 1 mM DTT and 0.03% CHAPS. The standard assay concentrations for enzyme, ATP, and substrate were 3 nM, IpM, and 10 μM, respectively. The reaction mixture was incubated at ambient temperature for approximately 2 h. Following the kinase reaction, a 10 μL aliquot of luciferase-luciferin mix (Promega Kinase-Glo) was added and the chemiluminescence signal measured using a Victor2 or EnVision (Perkin Elmer). Total ATP consumption was limited to 40-60% and IC50 values of control compounds correlate well with literature references. Substituting P13Kα with P13Kβ, […], or PI3Kδ, the inhibitory activity of the compounds for the other isoforms of P13-K were measured. For the P13Kβ and P13Kβ assays, enzyme concentrations were 10 nM and 4 nM. respectively. For the P13γ assay, enzyme concentration was 40 nM, the incubation time was 1 h, and the concentration of MgCl2 in the assay buffer was 5 mM.

Question: With `Cc1cc(-c2cnn(C)c2C)cc2c1OCCN(c1nc(N)nc(C)c1C(C)C)C2` [Compound 110, 4-[7-(1,5-dimethyl-1H-pyrazol-4-yl)-9-methyl-2,3-dihydro-1,4-benzoxazepin-4(5H)-yl]-6-methyl-5-(1-methylethyl)pyrimidin-2-amine] as the compound, how does the IC50 (mTOR/GbL/Raptor (mTORC1)) read?
Answer: 0.1 to 0.5 µM

Question: What about the IC50 (PI3Kα) of the same compound?
Answer: 0.5 to 2.5 µM

Question: How did the IC50 (mTOR/GbL/Raptor (mTORC1)) turn out when `CCNC(=O)c1sc(N2CCOc3c(C)cc(-c4cnc(Cl)c(NS(C)(=O)=O)c4)cc3C2)nc1C(C)C` [Compound 33, 2-[7-{6-chloro-5-[(methylsulfonyl)amino]pyridin-3-yl}-9-methyl-2,3-dihydro-1,4-benzoxazepin-4(5H)-yl]-N-ethyl-4-(1-methylethyl)-1,3-thiazole-5-carboxamide] was run?
Answer: 0.1 to 0.5 µM

Question: And the IC50 (PI3Kα)?
Answer: 0.5 to 2.5 µM

Question: Which results are given for `Cc1cc(-c2cn(C)nc2C)cc2c1OCCN(c1nc(N)nc(C)c1C(C)C)C2` [Compound 109, 4-[7-(1,3-dimethyl-1H-pyrazol-4-yl)-9-methyl-2,3-dihydro-1,4-benzoxazepin-4(5H)-yl]-6-methyl-5-(1-methylethyl)pyrimidin-2-amine]?
Answer: IC50 (mTOR/GbL/Raptor (mTORC1)): 0.1 to 0.5 µM; IC50 (PI3Kα): 0.5 to 2.5 µM

Question: With `COC(=O)c1ccc(-c2cc(C)c3c(c2)CN(c2nc(N)nc(C)c2C(C)C)CCO3)cc1OC` [Compound 68, methyl 4-{4-[2-amino-6-methyl-5-(1-methylethyl)pyrimidin-4-yl]-9-methyl-2,3,4,5-tetrahydro-1,4-benzoxazepin-7-yl}-2-(methyloxy)benzoate] as the compound, how does the IC50 (mTOR/GbL/Raptor (mTORC1)) read?
Answer: 0.1 to 0.5 µM

Question: And the IC50 (PI3Kα)?
Answer: 0.5 to 2.5 µM

Question: What does the source list for `C=Cc1cnc(N)nc1N1CCOc2c(C)cc(-c3cnc4sc(N)nc4c3)cc2C1` [Compound 89, 6-[4-(2-amino-5-ethenylpyrimidin-4-yl)-9-methyl-2,3,4,5-tetrahydro-1,4-benzoxazepin-7-yl][1,3]thiazolo[5,4-b]pyridin-2-amine]?
Answer: IC50 (mTOR/GbL/Raptor (mTORC1)): ≤ 0.1 µM; IC50 (PI3Kα): ≤ 0.1 µM

Question: How did the IC50 (mTOR/GbL/Raptor (mTORC1)) turn out when `[2H]C1([2H])Oc2c(C)cc(-c3cnc4sc(N)nc4c3)cc2CN(c2nc(N)nc(C)c2C(C)C)C1([2H])[2H]` [Compound 122, 6-{4-[2-amino-6-methyl-5-(1-methylethyl)pyrimidin-4-yl]-2,3,4,5-tetrahydro-1,4-benzoxazepin-7-yl}[1,3]thiazolo[5,4-b]pyridin-2-amine-d_4_] was run?
Answer: ≤ 0.1 µM

Question: What about the IC50 (PI3Kα) of the same compound?
Answer: ≤ 0.1 µM

Question: For `Cc1cc(-c2cnc(O)c(NS(C)(=O)=O)c2)cc2c1OCCN(c1nc(N)nc(C)c1C(C)C)C2` [Compound 19, N-(5-{4-[2-amino-6-methyl-5-(1-methylethyl)pyrimidin-4-yl]-9-methyl-2,3,4,5-tetrahydro-1,4-benzoxazepin-7-yl}-2-hydroxypyridin-3-yl)methanesulfonamide], which IC50 (mTOR/GbL/Raptor (mTORC1)) is on record?
Answer: ≤ 0.1 µM

Question: What about the IC50 (PI3Kα) of the same compound?
Answer: 0.5 to 2.5 µM

Question: `CCc1nc(CN(C)C)nc(N2CCOc3c(C)cc(-c4cnc5sc(N)nc5c4)cc3C2)c1C(C)C` [Compound 88, 6-(4-{2-[(dimethylamino)methyl]-6-ethyl-5-(1-methylethyl)pyrimidin-4-yl}-9-methyl-2,3,4,5-tetrahydro-1,4-benzoxazepin-7-yl)[1,3]thiazolo[5,4-b]pyridin-2-amine] was tested. Which IC50 (mTOR/GbL/Raptor (mTORC1)) did it give?
Answer: ≤ 0.1 µM

Question: With `Cc1cc(-c2cnc(N)nc2)cc2c1OCCN(c1nc(N)nc(C)c1C(C)C)C2` [Compound 81, 4-[7-(2-aminopyrimidin-5-yl)-9-methyl-2,3-dihydro-1,4-benzoxazepin-4(5H)-yl]-6-methyl-5-(1-methylethyl)pyrimidin-2-amine] as the compound, how does the IC50 (mTOR/GbL/Raptor (mTORC1)) read?
Answer: 0.1 to 0.5 µM

Question: How did the IC50 (mTOR/GbL/Raptor (mTORC1)) turn out when `CNc1ncnc(N2CCOc3c(C)cc(-c4cnc5sc(N)nc5c4)cc3C2)c1[N+](=O)[O-]` [Compound 148, 6-{9-methyl-4-[6-(methylamino)-5-nitropyrimidin-4-yl]-2,3,4,5-tetrahydro-1,4-benzoxazepin-7-yl}[1,3]thiazolo[5,4-b]pyridin-2-amine] was run?
Answer: 0.1 to 0.5 µM

Question: Which IC50 (mTOR/GbL/Raptor (mTORC1)) does the source give for `CCc1c(Cl)nc(N)nc1N1CCOc2c(C)cc(-c3cnc4sc(N)nc4c3)cc2C1` [Compound 54, 6-[4-(2-amino-6-chloro-5-ethylpyrimidin-4-yl)-9-methyl-2,3,4,5-tetrahydro-1,4-benzoxazepin-7-yl}[1,3]thiazolo[5,4-b]pyridin-2-amine] here?
Answer: ≤ 0.1 µM

Question: `CCN(Cc1nc(C)c(C(C)C)c(N2CCOc3c(C)cc(-c4nnc(N)s4)cc3C2)n1)CC(F)F` [Compound 170, 5-{4-[2-{[(2,2-difluoroethyl)(ethyl)amino]methyl}-6-methyl-5-(1-methylethyl)pyrimidin-4-yl]-9-methyl-2,3,4,5-tetrahydro-1,4-benzoxazepin-7-yl}-1,3,4-thiadiazol-2-amine] was tested. Which IC50 (mTOR/GbL/Raptor (mTORC1)) did it give?
Answer: 0.1 to 0.5 µM

Question: How did the IC50 (mTOR/GbL/Raptor (mTORC1)) turn out when `CCn1cc(-c2cc(C)c3c(c2)CN(c2nc(N)nc(C)c2C(C)C)CCO3)cn1` [Compound 111, 4-[7-(1-ethyl-1H-pyrazol-4-yl)-9-methyl-2,3-dihydro-1,4-benzoxazepin-4(5H)-yl]-6-methyl-5-(1-methylethyl)pyrimidin-2-amine] was run?
Answer: 0.1 to 0.5 µM

Question: How did the IC50 (mTOR/GbL/Raptor (mTORC1)) turn out when `Cc1cc(-c2cnc3sc(N)nc3c2)cc2c1OCCN(c1nc(N3CC(O)C3)nc(C)c1C(C)C)C2` [Compound 139, 1-{4-[7-(2-amino[1,3]thiazolo[5,4-b]pyridin-6-yl)-9-methyl-2,3-dihydro-1,4-benzoxazepin-4(5H)-yl]-6-methyl-5-(1-methylethyl)pyrimidin-2-yl}azetidin-3-ol] was run?
Answer: ≤ 0.1 µM

Question: For `Cc1cc(-c2cnc3sc(N)nc3c2)cc2c1OCCN(c1nc(CF)nc(C)c1C(C)C)C2` [Compound 120, 6-{4-[2-(fluoromethyl)-6-methyl-5-(1-methylethyl)pyrimidin-4-yl]-9-methyl-2,3,4,5-tetrahydro-1,4-benzoxazepin-7-yl}[1,3]thiazolo[5,4-b]pyridin-2-amine], which IC50 (mTOR/GbL/Raptor (mTORC1)) is on record?
Answer: ≤ 0.1 µM

Question: `Cc1cc(-c2cnc3sc(N)nc3c2)cc2c1OCCN(c1nc(S(C)(=O)=O)nc(C)c1C(C)C)C2` [Compound 86, 6-{9-methyl-4-[6-methyl-5-(1-methylethyl)-2-(methylsulfonyl)pyrimidin-4-yl]-2,3,4,5-tetrahydro-1,4-benzoxazepin-7-yl}[1,3]thiazolo[5,4-b]pyridin-2-amine] was tested. Which IC50 (mTOR/GbL/Raptor (mTORC1)) did it give?
Answer: ≤ 0.1 µM

Question: Which IC50 (mTOR/GbL/Raptor (mTORC1)) does the source give for `Cc1cc(-c2cccc(N)c2)cc2c1OCCN(c1nc(N)nc(C)c1C(C)C)C2` [Compound 69, 4-[7-(3-aminophenyl)-9-methyl-2,3-dihydro-1,4-benzoxazepin-4(5H)-yl]-6-methyl-5-(1-methylethyl)pyrimidin-2-amine] here?
Answer: 0.1 to 0.5 µM

Question: And the IC50 (PI3Kα)?
Answer: 0.5 to 2.5 µM

Question: Which IC50 (mTOR/GbL/Raptor (mTORC1)) does the source give for `Cc1cc(-c2cnc(Cl)c(NS(C)(=O)=O)c2)cc2c1OCCN(c1nc(C(N)=O)nc(C)c1C(C)C)C2` [Compound 44, 4-[7-{6-chloro-5-[(methylsulfonyl)amino]pyridin-3-yl}-9-methyl-2,3-dihydro-1,4-benzoxazepin-4(5H)-yl]-6-methyl-5-(1-methylethyl)pyrimidine-2-carboxamide] here?
Answer: ≤ 0.1 µM

Question: For `Cc1cc(-c2cnc(Cl)c(NS(C)(=O)=O)c2)cc2c1OCCN(c1nc(C(=O)NCCN(C)C)nc(C)c1C(C)C)C2` [Compound 43, 4-[7-(6-chloro-5-[(methylsulfonyl)amino]pyridin-3-yl}-9-methyl-2,3-dihydro-1,4-benzoxazepin-4(5H)-yl]-N-[2-(dimethylamino)ethyl]-6-methyl-5-(1-methylethyl)pyrimidine-2-carboxamide], which IC50 (mTOR/GbL/Raptor (mTORC1)) is on record?
Answer: ≤ 0.1 µM

Question: `COc1ccc(-c2cc(C)c3c(c2)CN(c2nc(N)nc(C)c2C(C)C)CCO3)cc1OC` [Compound 78, 4-{7-[3,4-bis(methyloxy)phenyl]-9-methyl-2,3-dihydro-1,4-benzoxazepin-4(5H)-yl}-6-methyl-5-(1-methylethyl)pyrimidin-2-amine] was tested. Which IC50 (mTOR/GbL/Raptor (mTORC1)) did it give?
Answer: 0.1 to 0.5 µM

Question: With `Cc1cc(-c2cnc3nc[nH]c3c2)cc2c1OCCN(c1nc(CNCC(F)F)nc(C)c1C(C)C)C2` [Compound 165, 2,2-difluoro-N-({4-[7-(1H-imidazo[4,5-b]pyridin-6-yl)-9-methyl-2,3-dihydro-1,4-benzoxazepin-4(5H)-yl]-6-methyl-5-(1-methylethyl)pyrimidin-2-yl}methyl)ethanamine] as the compound, how does the IC50 (mTOR/GbL/Raptor (mTORC1)) read?
Answer: ≤ 0.1 µM

Question: Which IC50 (mTOR/GbL/Raptor (mTORC1)) does the source give for `Cc1cc(-c2nnc(N)s2)cc2c1OCCN(c1nc(N)nc(C)c1C(C)C)C2` [Compound 137, 4-[7-(5-amino-1,3,4-thiadiazol-2-yl)-9-methyl-2,3-dihydro-1,4-benzoxazepin-4(5H)-yl]-6-methyl-5-(1-methylethyl)pyrimidin-2-amine] here?
Answer: ≤ 0.1 µM

Question: How did the IC50 (mTOR/GbL/Raptor (mTORC1)) turn out when `Cc1cnc(N2CCOc3c(C)cc(-c4cnc5sc(N)nc5c4)cc3C2)nc1N` [Compound 37, 6-[4-(4-amino-5-methylpyrimidin-2-yl)-9-methyl-2,3,4,5-tetrahydro-1,4-benzoxazepin-7-yl][1,3]thiazolo[5,4-b]pyridin-2-amine] was run?
Answer: 0.1 to 0.5 µM

Question: For `COCCc1nc(C)c(C(C)C)c(N2CCOc3c(C)cc(-c4cnc(Cl)c(NS(C)(=O)=O)c4)cc3C2)n1` [Compound 160, N-[2-chloro-5-(9-methyl-4-{6-methyl-5-(1-methylethyl)-2-[2-(methyloxy)ethyl]pyrimidin-4-yl}-2,3,4,5-tetrahydro-1,4-benzoxazepin-7-yl)pyridin-3-yl]methanesulfonamide], which IC50 (mTOR/GbL/Raptor (mTORC1)) is on record?
Answer: ≤ 0.1 µM
